Results published in patent US6620828B2, “Thiazole compounds and pharmaceutical compositions for inhibiting protein kinases and methods for their use” (Agouron Pharmaceuticals, Inc., priority 1999, dated 2003).

Test system: human umbilical vein endothelial cells (HUVEC)
Test: HUVEC proliferation assay
Format: cell-based
Settings: Homo sapiens, HUVEC, Table I screening results; 150 nM; crude combinatorial amide library
Method in brief: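 Readout was MTT dye reduction (A595) after 72 h of stimulation with VEGF at 6 ng/ml final. Compound, in 0.1% DMSO final, was added 1 h before VEGF to HUVEC starved 24 h in 1% FBS. % inhibition was scaled between VEGF-alone and unstimulated wells; IC50 was fitted from triplicate dose curves.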

| SMILES | inhibition at 0.15 µM |
| --- | --- |
| COc1cc(Nc2nc(N)c(-c3nc(-c4cccc(NC(=O)c5ccccc5CCc5ccccc5)c4)cs3)s2)cc(OC)c1OC | -14% |
| COc1cc(Nc2nc(N)c(-c3nc(-c4cccc(NC(=O)c5cccc(C(=O)c6ccccc6)c5)c4)cs3)s2)cc(OC)c1OC | -18% |
| COc1cc(Nc2nc(N)c(-c3nc(-c4cccc(NC(=O)C5CCCCC5)c4)cs3)s2)cc(OC)c1OC | -24% |
| COc1cc(Nc2nc(N)c(-c3nc(-c4cccc(NC(=O)c5ccc(-c6ccccc6)cc5)c4)cs3)s2)cc(OC)c1OC | -32% |
| COc1cc(Nc2nc(N)c(-c3nc(-c4cccc(NC(=O)CC5CCCCC5)c4)cs3)s2)cc(OC)c1OC | 3% |
| COc1cc(Nc2nc(N)c(-c3nc(-c4cccc(NC(=O)c5cc6cc(Cl)ccc6[nH]5)c4)cs3)s2)cc(OC)c1OC | 0% |
| COc1cc(Nc2nc(N)c(-c3nc(-c4cccc(NC(=O)CCC5CCCCC5)c4)cs3)s2)cc(OC)c1OC | 8% |
| COc1cc(Nc2nc(N)c(-c3nc(-c4cccc(NC(=O)/C=C/c5ccccc5)c4)cs3)s2)cc(OC)c1OC | 36% |
| COc1cc(Nc2nc(N)c(-c3nc(-c4cccc(NC(=O)Cc5ccc(Cl)cc5)c4)cs3)s2)cc(OC)c1OC | -7% |
| COc1cc(Nc2nc(N)c(-c3nc(-c4cccc(NC(=O)c5ccc6[nH]cnc6c5)c4)cs3)s2)cc(OC)c1OC | -30% |
| COc1cc(Nc2nc(N)c(-c3nc(-c4cccc(NC(=O)Cc5cccc(Cl)c5)c4)cs3)s2)cc(OC)c1OC | 30% |
| COc1cc(Nc2nc(N)c(-c3nc(-c4cccc(NC(=O)c5cc6cccc(OC)c6o5)c4)cs3)s2)cc(OC)c1OC | 21% |
| COc1cc(Nc2nc(N)c(-c3nc(-c4cccc(NC(=O)c5cn(Cc6ccccc6)c6ccccc56)c4)cs3)s2)cc(OC)c1OC | -11% |
| CC/C=C/CC(=O)Nc1cccc(-c2csc(-c3sc(Nc4cc(OC)c(OC)c(OC)c4)nc3N)n2)c1 | 19% |
| COc1cc(Nc2nc(N)c(-c3nc(-c4cccc(NC(=O)c5ccc6cc[nH]c6c5)c4)cs3)s2)cc(OC)c1OC | 25% |
| COc1cc(Nc2nc(N)c(-c3nc(-c4cccc(NC(=O)c5ccc6ncccc6c5)c4)cs3)s2)cc(OC)c1OC | 26% |
| COc1cc(Nc2nc(N)c(-c3nc(-c4cccc(NC(=O)CN5C(=O)CSC5=O)c4)cs3)s2)cc(OC)c1OC | 17% |
| COc1cc(Nc2nc(N)c(-c3nc(-c4cccc(NC(=O)C5C=CCC=C5C)c4)cs3)s2)cc(OC)c1OC (centres unmarked) | 14% |

| SMILES | inhibition at 0.15 µM |
| --- | --- |
| COc1ccc2c(c1)C(CC(=O)Nc1cccc(-c3csc(-c4sc(Nc5cc(OC)c(OC)c(OC)c5)nc4N)n3)c1)CC2=O (centres unmarked) | 0% |
| COc1ccc2[nH]c(C(=O)Nc3cccc(-c4csc(-c5sc(Nc6cc(OC)c(OC)c(OC)c6)nc5N)n4)c3)cc2c1 | 1% |
| COc1cc(Nc2nc(N)c(-c3nc(-c4cccc(NC(=O)c5ccc6ccccc6n5)c4)cs3)s2)cc(OC)c1OC | -11% |
| COc1cc(Nc2nc(N)c(-c3nc(-c4cccc(NC(=O)c5ccc6c(c5)OCO6)c4)cs3)s2)cc(OC)c1OC | 42% |
| C#CCCCC(=O)Nc1cccc(-c2csc(-c3sc(Nc4cc(OC)c(OC)c(OC)c4)nc3N)n2)c1 | -14% |
| COc1ccc2oc(C(=O)Nc3cccc(-c4csc(-c5sc(Nc6cc(OC)c(OC)c(OC)c6)nc5N)n4)c3)cc2c1 | 7% |
| COc1cc(Nc2nc(N)c(-c3nc(-c4cccc(NC(=O)C(C)c5ccccc5)c4)cs3)s2)cc(OC)c1OC (centres unmarked) | 3% |
| COc1cc(Nc2nc(N)c(-c3nc(-c4cccc(NC(=O)C5=C(C)c6ccccc6C5)c4)cs3)s2)cc(OC)c1OC | 29% |
| COc1cc(Nc2nc(N)c(-c3nc(-c4cccc(NC(=O)/C=C/c5cccnc5)c4)cs3)s2)cc(OC)c1OC | -13% |
| COc1cc(Nc2nc(N)c(-c3nc(-c4cccc(NC(=O)C5CCCCCC5)c4)cs3)s2)cc(OC)c1OC | 13% |
| COc1cc(Nc2nc(N)c(-c3nc(-c4cccc(NC(=O)c5ccc(N(C)C)cc5)c4)cs3)s2)cc(OC)c1OC | 0% |
| CCC(C)CC(=O)Nc1cccc(-c2csc(-c3sc(Nc4cc(OC)c(OC)c(OC)c4)nc3N)n2)c1 (centres unmarked) | -3% |
| COc1cc(Nc2nc(N)c(-c3nc(-c4cccc(NC(=O)C(C)(C)C)c4)cs3)s2)cc(OC)c1OC | 7% |
| COc1cc(Nc2nc(N)c(-c3nc(-c4cccc(NC(=O)c5ccc(CCCl)cc5)c4)cs3)s2)cc(OC)c1OC | 59% |
| COc1cc(Nc2nc(N)c(-c3nc(-c4cccc(NC(=O)CCc5nc6ccccc6[nH]5)c4)cs3)s2)cc(OC)c1OC | 27% |
| COc1cc(Nc2nc(N)c(-c3nc(-c4cccc(NC(=O)c5csc(-c6cccnc6)n5)c4)cs3)s2)cc(OC)c1OC | 38% |
| COc1cc(Nc2nc(N)c(-c3nc(-c4cccc(NC(=O)c5ccc(C(=O)C(F)(F)F)cc5)c4)cs3)s2)cc(OC)c1OC | 26% |
